Experimental data reported in patent publication US20120204273A1, “COMPOSITIONS RELATING TO A PHOSPHOPROTEIN AND METHODS OF USE” (SANFORD-BURNHAM MEDICAL RESEARCH INSTITUTE, priority 2010, published 2012).

What was measured:
3T3-L1 adipocytes [1] = test: myc-GLUT4-GFP translocation to the cell surface; assay type: cell-based, mouse; settings: for effect on insulin-stimulated myc-GLUT4-GFP translocation to cell surface: fixed cells, Akti1/2 50 μM for 1 hr, insulin 100 nM 30 min; for effect of overexpression on insulin-stimulated myc-GLUT4-GFP translocation (TIRF myc / Epi GFP): insulin 100 nM, 30 min
Experimental: FIG. 2, panels A-C show knockdown of CDP138 in 3T3-L1 adipocytes inhibits insulin-stimulated glucose transport (A) and myc-GLUT4-GFP translocation (B), but not endogenous GLUT4 movement to the periphery detected in TIRF zone (C). (A): Differentiated adipocytes at day 5 were transfected with siRNAs against mouse 5730419I09Rik or the scrambled siRNA (Scr) as described earlier (Jiang et al., 2003) for 60 hrs, then serum starved overnight. Cells were then treated with or without insulin (1 nM and 100 nM) for 30 min for the glucose uptake assay, or 15 min for immunoblotting of CDP138, pAkt, Akt and β-actin. Glucose transport data are presented as mean±SD of 4 independent experiments. *P<0.05 vs Scr Insulin (1 nM) group; **P<0.01 vs Scr Insulin (100 nM) group. (B): Day 5 adipocytes were transfected with siRNAs and myc-GLUT4-GFP for 60 hrs and then serum starved overnight. Cells were then treated with insulin (1 nM) for 20 min. Cell surface Myc-GLUT4-GFP was detected with anti-myc monoclonal Ab (9E10) and Alexa Fluor 568-labeled goat anti-mouse IgG in non-permeablized cells. The Myc signal and GFP signal were quantified as previously described (Jiang et al., 2002). Data presented are representative microscopic images and mean±SD of about 160 GFP-positive cells in each group from three independent experiments. **P<0.01 vs Scr Insulin (1 nM) group. […] GLUT4 was detected with a goat anti-GLUT4 Ab and Alexa Fluor 488-conjugated donkey anti-goat Ab in permeabilized cells. Top and middle panels show 100 nm TIRF zone and representative GLUT4 TIRFM images, respectively. Data are mean±SD of 3 independent experiments. **P<0.01 vs Scr Insulin groups.
GLUT4 translocation detection with wide field fluorescence and TIRF microscopy: Both wide field and TIRF microscopy were used to detect myc-GLUT4-GFP translocation to the cell surface as previously described (Jiang et al., 2002) and herein.
To test the effect of RNAi-induced gene specific knockdown of CDP138 or overexpression of CDP138 mutants on GLUT4 translocation, siRNAs or CDP138 constructs were transfected into adipocytes together with myc-GLUT4-GFP by electroporation as previously described (Jiang et al, 2003). […] Cells were washed with cold PBS, fixed with 4% formaldehyde and immunostained. Briefly, for siRNA study, the cell surface Myc-GLUT4-GFP was visualized with mouse anti-Myc Ab (9E10) and AlexaFluoro568-labeled goat anti-mouse secondary Ab (Invitrogen) in PBS containing 1% FBS. After washing, the coverslip were mounted with Prolong antifade reagent (Invitrogen, Eugene Oreg.). Fluorescence microscopy was carried as described below. Then, images were acquired with wide field microscopy as described below. For the study with overexpressed HAtagged CDP138 constructs, the cell surface Myc-GLUT4-GFP was visualized with rabbit anti-Myc Ab (Cell signaling, Inc) and AlexaFluoro568-labeled goat anti-rabbit secondary Ab (InVitrogen) in PBS containing 1% FBS. Cells were further permeabilized with PSB containing 0.5% Tween-20, and HA-tagged protein was detected with a mouse anti-HA epitope primary Ab followed by AlexaFluoro-350-labelled goat anti-mouse IgG. Insulin-induced myc-GLUT4 accumulation (AlexaFluoro-568 signal) within the evanescence excitation field (100 nm from dorsal membrane) in transfected adipocytes was measured with a Nikon Eclipse-Ti microscope equipped with a CoolSNAP HQ2 camera and laser scanning TIRF capacity. Total GLUT4-GFP signals and […] Alexa Fluoro-350 signals were acquired with wide field imaging to identify double-transfected cells. The ratio of myc-GLUT4 signal in the TIRF zone to the total Epi-GFP signal in wide field was used as a measure of GLUT4 translocation to the cell surface.
(§1) Image Analysis and Quantification: TIRF and wide field fluorescence microscopy were performed using a Nikon inverted microscope (Melville, N.Y.) with a cooled charge-coupled device camera. […]

3T3-L1 adipocytes [2] = test: GSV-PM fusion in live adipocytes (IRAP-pHluorin, TIRF microscopy); assay type: cell-based, mouse; settings: Akti1/2 5 μM for 1 h, insulin 100 nM 30 min
Excerpt: FIG. 3, panels A-C, show knockdown of CDP138 in live 3T3-L1 adipocytes inhibits insulin-stimulated membrane fusion between GLUT4 storage vesicles (GSV) and the PM, but not GLUT4-EGFP trafficking to the TIRF zone. (A): Schematic illustration of the molecular probes and TIRF microcopy-based live cell assays for GLUT4 trafficking and GSV-PM fusion. (B) and (C): The effect of CDP138 knockdown on insulin-stimulated IRAP-pHluorin insertion into the PM (B), and accumulation of GLUT4-EGFP in the TIRF zone (C). Adipocytes (day 4) were transfected by electroporation with plasmid DNA encoding IRAP-pHluorin or GLUT4-EGFP, together with either the scrambled siRNA or smartPool siRNA against mouse 5730419I09Rik. Cells were reseeded on glass-bottomed dishes for 72 hrs, serum starved for 2 hr then stimulated with 100 nM insulin for 30 min. Analyses were performed in a cell warmer adapted for a Nikon TiE with fully motorized combined dual laser (488 and 561 nm). Images were acquired every 3 min immediately after addition of insulin and analyzed as described in the Supplementary Experimental Procedures. Perfect focus system and multiple points capture program (NIS Element) were used to acquire images from multiple positively transfected cells at each time point. […]
Total Internal Reflection Fluorescence (TIRF) Microscopy: Nikon (Melville, N.Y.) TI-TIRF-E, which was based on the objective lens method, was used to perform all the TIRF experiments. […] Positively transfected adipocytes were identified, and the insulin-stimulated IRAP vesicle-PM fusion events or GLUT4-EGFP trafficking to the TIRF zone were recorded every 3 min for a 30 min period using Nikon Eclipse-Ti TIRF microscope. […]
as §1

| Molecule | effect on insulin-stimulated myc-GLUT4-GFP translocation to cell surface (3T3-L1 adipocytes [1]) | effect on insulin-stimulated myc-GLUT4-GFP translocation to cell surface (3T3-L1 adipocytes [1]; listed as Akti1/2) | effect on insulin-induced GSV-PM membrane fusion (3T3-L1 adipocytes [2]) | effect on insulin-induced GSV-PM membrane fusion (3T3-L1 adipocytes [2]; listed as Akti1/2) | effect of overexpression on insulin-stimulated myc-GLUT4-GFP translocation (TIRF myc / Epi GFP) (3T3-L1 adipocytes [1]) | effect of overexpression on insulin-stimulated myc-GLUT4-GFP translocation (TIRF myc / Epi GFP) (3T3-L1 adipocytes [1]; listed as S197A) |
| --- | --- | --- | --- | --- | --- | --- |
| O=c1[nH]c2ccccc2n1C1CCN(Cc2ccc(-c3nc4cc5nc[nH]c5cc4nc3-c3ccccc3)cc2)CC1 [Akti, reference compound] | significantly inhibited | blocks | significantly inhibited | blocks | – | – |
| HA-CDP138-5DA: HA-tagged CDP138 with D19A, D26A, D76A, D78A, D84A (protein, UniProt Q86YS7 1-1000, looked up, variant D19A D26A D76A D78A D84A, HA tag, HA-tagged CDP138 with D19A, D26A, D76A, D78A, D84A) C2 domain-containing protein 5: MPGKLKVKIVAGRHLPVMARASDLTAAFVEVKFGNTTFKTDVYLKSLNPQWNSEWFKFEVDDEDLQDEPLQITVLAHATYSANAAIGKVYIDIDPLLYSEAATVISGWFPIYDTIHGIRGEINVVVKVDLFNDLNRFRQSSCGVKFFCTTSIPKCYRAVIIHGFVEELVVNEDPEYQWIDRIRTPRASNEARQRLISLMSGELQRKIGLKVLEMRGNAVVGYLQCFDLEGESGLVVRAIGTACTLDKLSSPAAFLPACNSPSKEMKEIPFNEDPNPNTHSSGPSTPLKNQTYSFSPSKSYSRQSSSSDTDLSLTPKTGMGSGSAGKEGGPFKALLRQQTQSALEQREFPFFTLTAFPPGFLVHVGGVVSARSVKLLDRIHNPDEPETRDAWWAEIRQEIKSHAKALGCHAVVGYSESTSICEEVCILSASGTAAVLNPRFLQDGTVEGCLEQRLEENLPTRCGFCHIPYDELNMPFPAHLTYCYNCRKQKVPDVLFTTIDLPTDATVIGKGCLIQARLCRLKKKAQAEANATAISNLLPFMEYEVHTQLMNKLKLKGMNALFGLRIQITVGENMLMGLASATGVYLAALPTPGGIQIAGKTPNDGSYEQHISHMQKKINDTIAKNKELYEINPPEISEEIIGSPIPEPRQRSRLLRSQSESSDEVTELDLSHGKKDAFVLEIDDTDAMEDVHSLLTDVPPPSGFYSCNTEIMPGINNWTSEIQMFTSVRVIRLSSLNLTNQALNKNFNDLCENLLKSLYFKLRSMIPCCLCHVNFTVSLPEDELIQVTVTAVAITFDKNQALQTTKTPVEKSLQRASTDNEELLQFPLELCSDSLPSHPFPPAKAMTVEKASPVGDGNFRNRSAPPCANSTVGVVKMTPLSFIPGAKITKYLGIINMFFIRETTSLREEGGVSGFLHAFIAEVFAMVRAHVAALGGNAVVSYIMKQCVFMENPNKNQAQCLINVSGDAVVFVRESDLEVVSSQQPTTNCQSSCTEGEVTT | – | – | – | – | inhibited | – |
| HA-CDP138-S197A: HA-tagged CDP138 mutant lacking the Akt2 phosphorylation site Ser197 (protein, UniProt Q86YS7 1-1000, looked up, variant S197A, HA tag, HA-tagged CDP138 mutant lacking the Akt2 phosphorylation site Ser197) C2 domain-containing protein 5: MPGKLKVKIVAGRHLPVMDRASDLTDAFVEVKFGNTTFKTDVYLKSLNPQWNSEWFKFEVDDEDLQDEPLQITVLDHDTYSANDAIGKVYIDIDPLLYSEAATVISGWFPIYDTIHGIRGEINVVVKVDLFNDLNRFRQSSCGVKFFCTTSIPKCYRAVIIHGFVEELVVNEDPEYQWIDRIRTPRASNEARQRLIALMSGELQRKIGLKVLEMRGNAVVGYLQCFDLEGESGLVVRAIGTACTLDKLSSPAAFLPACNSPSKEMKEIPFNEDPNPNTHSSGPSTPLKNQTYSFSPSKSYSRQSSSSDTDLSLTPKTGMGSGSAGKEGGPFKALLRQQTQSALEQREFPFFTLTAFPPGFLVHVGGVVSARSVKLLDRIHNPDEPETRDAWWAEIRQEIKSHAKALGCHAVVGYSESTSICEEVCILSASGTAAVLNPRFLQDGTVEGCLEQRLEENLPTRCGFCHIPYDELNMPFPAHLTYCYNCRKQKVPDVLFTTIDLPTDATVIGKGCLIQARLCRLKKKAQAEANATAISNLLPFMEYEVHTQLMNKLKLKGMNALFGLRIQITVGENMLMGLASATGVYLAALPTPGGIQIAGKTPNDGSYEQHISHMQKKINDTIAKNKELYEINPPEISEEIIGSPIPEPRQRSRLLRSQSESSDEVTELDLSHGKKDAFVLEIDDTDAMEDVHSLLTDVPPPSGFYSCNTEIMPGINNWTSEIQMFTSVRVIRLSSLNLTNQALNKNFNDLCENLLKSLYFKLRSMIPCCLCHVNFTVSLPEDELIQVTVTAVAITFDKNQALQTTKTPVEKSLQRASTDNEELLQFPLELCSDSLPSHPFPPAKAMTVEKASPVGDGNFRNRSAPPCANSTVGVVKMTPLSFIPGAKITKYLGIINMFFIRETTSLREEGGVSGFLHAFIAEVFAMVRAHVAALGGNAVVSYIMKQCVFMENPNKNQAQCLINVSGDAVVFVRESDLEVVSSQQPTTNCQSSCTEGEVTT | – | – | – | – | inhibited | blocked |
